Measured values taken from patent publication US20050159599A1, “Cyclic compound, process for producing the same, and pest control agent” (priority 2002, published 2005).

Experiments:
Format in all cases: in vivo
Plutella xylostella [1] = assay: Insecticidal effect for Plutella xylostella by immersion treatment of host crop (Test Example 1); conditions: cabbage leaf dipped, second-instar larvae of Plutella xylostella, fifth day after; for rate of dead pests (%): 100 ppm; for pest or weed control at 100 ppm: foliar, 120 h, read-out: rate of dead pests (%)
Description: Insecticidal Effect for Plutella xylostella by Immersion Treatment of Host Crop One true leaf of 7 to 8-leave stage cabbage was cut off and dipped in a pesticidal solution for a few seconds, which was prepared by dissolving 5 mg of test compound (represented by the compound Nos. in the above Examples) in 0.5 ml of acetone containing Tween 20 (trade name) and then diluting it to the prescribed concentration (100 ppm) with Dain (trade name, sticker) water diluted 5000-fold. After drying the pesticidal solution, the leaf was put into an ice cream cup (180 ml), and ten second-instar larvae of Plutella xylostella were set free therein. The cup was left in a temperature-controlled breeding room (24° C.). On the fifth day after, the number of surviving Plutella xylostella was examined. The rate of dead pests was calculated by the following formula. rate of dead pests (%)=(number of dead pests/number of test pests)×100

Spodoptera litura [2] = assay: Insecticidal effect for Spodoptera litura by spraying treatment to host crop (Test Example 2); conditions: 100 ppm, sprayed on soybean, third-instar larvae of Spodoptera litura, fifth day after; for pest or weed control at 100 ppm: 120 h, read-out: rate of dead pests (%)
Outline: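 Soybean plants with fully developed primary leaves sprayed to runoff with 100 ppm compound (acetone/Tween 20, sticker water). Dried leaves given to ten third-instar larvae at 25° C.; survivors counted on day 5, mortality as dead/tested × 100.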

Tetranychus urticae = assay: Acaricidal effect for Tetranychus urticae (Test Example 5); conditions: 100 ppm (table); spray on kidney bean with ten female imagoes; survivors counted on second and seventh day, 25° C.
Description: Acaricidal Effect for Tetranychus urticae
Ten female imagoes Tetranychus urticae were set free on a kidney bean wherein primary leaves had just developed. On the following day, a pesticidal solution, which was prepared by dissolving 5 mg of test compound (represented by the compound Nos. in the above Examples) in 0.5 ml of acetone containing Tween 20 ([…]) with Dain (trade name, sticker) water diluted 5000-fold, was sprayed with spray gun in the amounts wherein the pesticidal solution dripped. The kidney bean was left in a temperature-controlled breeding room (25° C.). On the second and seventh day after treatment, the number of surviving Tetranychus urticae was examined. The rate of decrease was calculated by the following formula. rate of decrease (%)=(1−(S2/(5.59×(10+(10+S1)/2+S1))))×100 In the above formula, • S1; the number of surviving imagoes on the second day after • S2; the number of surviving pests on the seventh day after […]

Spodoptera litura [3] = assay: Insecticidal effect for Spodoptera litura by immersion treatment of host crop root (Test Example 4); conditions: 25 ppm, soybean root immersion 5 days, second-instar larvae of Spodoptera litura, fifth day after; for pest or weed control at 25 ppm: 120 h, read-out: rate of dead pests (%)
Outline: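 Soil was washed from the roots of soybean plants at the primary-leaf stage, and the roots were immersed in a pesticidal solution held in a light-shielded 100 ml Erlenmeyer flask. The solution was made from acetone containing Tween 20, diluted with ion-exchange water. Five days after root immersion, two primary leaves were cut and placed in a 180 ml cup with ten second-instar Spodoptera litura larvae, then kept at 25° C. Survivors were counted five days later. The rate of dead pests (%) was calculated as dead pests divided by test pests, times 100.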

Plutella xylostella [4] = assay: Insecticidal effect for Plutella xylostella by immersion treatment of host crop root (Test Example 3); conditions: 25 ppm, cabbage root immersed 5 days, ten second-instar larvae on stem and leaves, counted on the fifth day, 24° C.; for pest or weed control at 25 ppm: Plutella xylostella, 120 h, read-out: rate of dead pests (%)
Description: Insecticidal Effect for Plutella xylostella by Immersion Treatment of Host Crop Root
Roots of 4-leave stage cabbage was washed with tap water to remove soil, and then immersed in a pesticidal solution which was prepared by dissolving 5 mg of test compound (represented by the compound Nos. in the above Examples) in 0.5 ml of acetone containing Tween 20 (trade name) and then diluting it to the prescribed concentration (25 ppm) with ion-exchange water, and which was filled in a light-shielded Erlenmeyer flask (100 ml). On the fifth day after immersion of root, the root was cut off, and the stem and leaves were put into an ice cream cup (180 ml). Ten second-instar larvae of Plutella xylostella were set free therein, and the cup was left in a temperature-controlled breeding room (24° C.). On the fifth day after, the number of surviving Plutella xylostella was examined. The rate of dead pests was calculated by the following formula. rate of dead pests (%)=(number of dead pests/number of test pests)×100

Row | SMILES | rate of dead pests (%) (Plutella xylostella [1]) | rate of dead pests (%) (Spodoptera litura [2]) | rate of decrease (%) (Tetranychus urticae) | also measured
1 | C=CCN1CN(C(=O)c2c(F)cccc2F)C(=O)N(c2ccc(Oc3ccc(C(F)(F)F)cc3Cl)cc2F)C1 [III-24] | 100 | 100 | 95 | –
2 | O=C(c1c(F)cccc1F)N1CN(S(=O)(=O)C(F)(F)F)CN(c2ccc(Oc3ccc(C(F)(F)F)cc3Cl)cc2F)C1=O [III-35] | – | 100 | 97 | –
3 | O=C(CBr)N1CN(C(=O)c2c(F)cccc2F)C(=O)N(c2ccc(Oc3ccc(C(F)(F)F)cc3Cl)cc2F)C1 [III-44] | 100 | 100 | 96 | –
4 | CNC(=O)C(=O)N1CN(C(=O)c2c(F)cccc2F)C(=O)N(c2ccc(Oc3ccc(C(F)(F)F)cc3Cl)cc2F)C1 [III-42] | – | 100 | 98 | –
5 | COC(=O)SN1CN(C(=O)c2c(F)cccc2F)C(=O)N(c2ccc(Oc3ccc(C(F)(F)F)cc3Cl)cc2F)C1 [III-31] | 100 | 100 | 99 | –
6 | O=C(c1c(F)cccc1F)N1CNCN(c2ccc(Oc3ccc(C(F)(F)F)cc3Cl)cc2F)C1=O [III-27, 1-[4-(2-chloro-4-trifluoromethylphenoxy)-2-fluorophenyl]-3-(2,6-difluorobenzoyl)tetrahydro-1,3,5-triazin-2(1H)-one] | – | – | 96 | pest or weed control at 100 ppm (Plutella xylostella [1]): 100%; pest or weed control at 100 ppm (Spodoptera litura [2]): 100%
7 | CSCC(=O)N1CN(C(=O)c2c(F)cccc2F)C(=O)N(c2ccc(Oc3ccc(C(F)(F)F)cc3Cl)cc2F)C1 [III-45] | 100 | 100 | 100 | –
8 | CC(C)N1CN(C(=O)c2c(F)cccc2F)C(=O)N(c2ccc(Oc3ccc(C(F)(F)F)cc3Cl)cc2F)C1 [III-25] | 100 | 100 | 97 | –
9 | COC(=O)C(=O)N1CN(C(=O)c2c(F)cccc2F)C(=O)N(c2ccc(Oc3ccc(C(F)(F)F)cc3Cl)cc2F)C1 [III-37, Methyl 2-[3-[4-(2-chloro-4-trifluoromethylphenoxy)-2-fluorophenyl]-5-(2,6-difluorobenzoyl)hexahydro-4-oxo-1,3,5-triazin-1-yl]-2-oxoacetate] | – | – | 97 | pest or weed control at 25 ppm (Spodoptera litura [3]): 95%; pest or weed control at 100 ppm (Spodoptera litura [2]): 100%
10 | CN1CN(C(=O)c2c(F)cccc2F)C(=O)N(c2ccc(SC(F)F)cc2F)C1 [III-148, 1-(2,6-difluorobenzoyl)-3-[4-(difluoromethylthio)-2-fluorophenyl]-5-methyltetrahydro-1,3,5-triazin-2(1H)-one] | – | – | – | pest or weed control at 25 ppm (Plutella xylostella [4]): 100%; pest or weed control at 25 ppm (Spodoptera litura [3]): 100%; pest or weed control at 100 ppm (Plutella xylostella [1]): 100%; pest or weed control at 100 ppm (Spodoptera litura [2]): 100%
11 | CN1CN(C(=O)c2c(F)cccc2F)C(=O)N(c2ccc([S+]([O-])C(F)F)cc2F)C1 (stereo not drawn) [III-152, 1-(2,6-difluorobenzoyl)-3-[4-(difluoromethylsulfinyl)-2-fluorophenyl]-5-methyltetrahydro-1,3,5-triazin-2(1H)-one] | – | – | – | pest or weed control at 25 ppm (Plutella xylostella [4]): 100%; pest or weed control at 25 ppm (Spodoptera litura [3]): 100%; pest or weed control at 100 ppm (Plutella xylostella [1]): 100%; pest or weed control at 100 ppm (Spodoptera litura [2]): 100%
12 | NC(=O)C(=O)N1CN(C(=O)c2c(F)cccc2F)C(=O)N(c2ccc(Oc3ccc(C(F)(F)F)cc3Cl)cc2F)C1 [III-41] | 100 | 100 | 97 | –
13 | O=C(c1c(F)cccc1F)N1COCN(c2ccc([S+]([O-])C(F)(F)C(F)F)cc2)C1=O (stereo not drawn) [I-20] | 100 | 100 | – | rate of dead pests (%) (Plutella xylostella [4]): 100%; rate of dead pests (%) (Spodoptera litura [3]): 95%
14 | O=C(c1c(F)cccc1Cl)N1COCN(c2ccc([S+]([O-])C(F)(F)F)cc2F)C1=O (stereo not drawn) [I-222] | 100 | 100 | – | rate of dead pests (%) (Plutella xylostella [4]): 100%; rate of dead pests (%) (Spodoptera litura [3]): 100%
15 | O=C(c1c(F)cccc1F)N1COCN(c2ccc(SC(F)F)cc2F)C1=O [I-41, 3-(2,6-difluorobenzoyl)-5-[4-(difluoromethylthio)-2-fluorophenyl]tetrahydro-4H-1,3,5-oxadiazin-4-one] | – | – | – | pest or weed control at 25 ppm (Plutella xylostella [4]): 100%; pest or weed control at 25 ppm (Spodoptera litura [3]): 100%; pest or weed control at 100 ppm (Plutella xylostella [1]): 100%; pest or weed control at 100 ppm (Spodoptera litura [2]): 100%
16 | CONC(=O)C(=O)N1CN(C(=O)c2c(F)cccc2F)C(=O)N(c2ccc(Oc3ccc(C(F)(F)F)cc3Cl)cc2F)C1 [III-49] | – | 100 | 96 | rate of dead pests (%) (Spodoptera litura [3]): 95%
17 | O=C(OCc1ccccc1)C(=O)N1CN(C(=O)c2c(F)cccc2F)C(=O)N(c2ccc(Oc3ccc(C(F)(F)F)cc3Cl)cc2F)C1 [III-39, Benzyl 2-[3-[4-(2-chloro-4-trifluoromethylphenoxy)-2-fluorophenyl]-5-(2,6-difluorobenzoyl)hexahydro-4-oxo-1,3,5-triazin-1-yl]-2-oxoacetate] | – | – | 97 | pest or weed control at 100 ppm (Plutella xylostella [1]): 100%; pest or weed control at 100 ppm (Spodoptera litura [2]): 100%
18 | C[S+]([O-])CC(=O)N1CN(C(=O)c2c(F)cccc2F)C(=O)N(c2ccc(Oc3ccc(C(F)(F)F)cc3Cl)cc2F)C1 (stereo not drawn) [III-46] | – | – | 97 | –
19 | CS(=O)(=O)N1CN(C(=O)c2c(F)cccc2F)C(=O)N(c2cc(Cl)c(F)c(Cl)c2F)C1 [III-58] | 100 | 100 | – | rate of dead pests (%) (Plutella xylostella [4]): 90%; rate of dead pests (%) (Spodoptera litura [3]): 100%
20 | O=C(O)C(=O)N1CN(C(=O)c2c(F)cccc2F)C(=O)N(c2ccc(Oc3ccc(C(F)(F)F)cc3Cl)cc2F)C1 [III-38, 2-[3-[4-(2-chloro-4-trifluoromethylphenoxy)-2-fluorophenyl]-5-(2,6-difluorobenzoyl)hexahydro-4-oxo-1,3,5-triazin-1-yl]-2-oxoacetic Acid] | – | – | 98 | pest or weed control at 25 ppm (Plutella xylostella [4]): 90%; pest or weed control at 25 ppm (Spodoptera litura [3]): 100%; pest or weed control at 100 ppm (Spodoptera litura [2]): 100%
21 | CN1CN(C(=O)c2c(F)cccc2F)C(=O)N(c2ccc(Oc3ccc(C(F)(F)F)cc3Cl)cc2F)C1 [III-21] | – | 100 | 99 | –
22 | CON(C)C(=O)C(=O)N1CN(C(=O)c2c(F)cccc2F)C(=O)N(c2ccc(Oc3ccc(C(F)(F)F)cc3Cl)cc2F)C1 [III-48] | 100 | – | 95 | –
23 | CC(=O)N1CN(C(=O)c2c(F)cccc2F)C(=O)N(c2ccc(SC(F)F)cc2F)C1 [III-149] | 100 | 100 | – | rate of dead pests (%) (Plutella xylostella [4]): 95%; rate of dead pests (%) (Spodoptera litura [3]): 100%
24 | CSc1ccc(N2COCN(C(=O)c3c(F)cccc3F)C2=O)c(F)c1 [I-28] | 100 | 100 | – | rate of dead pests (%) (Plutella xylostella [4]): 100%; rate of dead pests (%) (Spodoptera litura [3]): 100%
